Assay results: PubChem BioAssay AID2060507 (Molecular Pharmacology Branch, DTP, NCI, 2025)

System: 519858-162-T-J1-PDC complex spheroid viability
Assay: Anticancer human tumor 519858-162-T-J1-PDC patient-derived colon adenocarcinoma cell line growth inhibition [GQUAD]
Conditions: for IC50: curve of first compound; for viability, T/C: stronger effect = lower value
Procedure, shortened: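 Tumor cells were grown as complex spheroids with HUVEC endothelial cells and mesenchymal stem cells as stroma. G-quadruplex stabilizers were combined with targeted agents over half-log dilutions from near the clinical Cmax, or from 10 microM.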

[1] = second compound 0.0316 µM, first compound 0.0316 µM
[2] = second compound 0.0316 µM, first compound 0.1 µM
[3] = second compound 0.0316 µM, first compound 0.316 µM
[4] = second compound 0.0316 µM, first compound 1 µM
[5] = second compound 0.0316 µM, first compound 3.16 µM
[6] = second compound 0.0316 µM, first compound 10 µM
[7] = second compound 0.1 µM, first compound 0.0316 µM
[8] = second compound 0.1 µM, first compound 0.1 µM
[9] = second compound 0.1 µM, first compound 0.316 µM
[10] = second compound 0.1 µM, first compound 1 µM
[11] = second compound 0.1 µM, first compound 3.16 µM
[12] = second compound 0.1 µM, first compound 10 µM
[13] = second compound 0.316 µM, first compound 0.0316 µM
[14] = second compound 0.316 µM, first compound 0.1 µM
[15] = second compound 0.316 µM, first compound 0.316 µM
[16] = second compound 0.316 µM, first compound 1 µM
[17] = second compound 0.316 µM, first compound 3.16 µM
[18] = second compound 0.316 µM, first compound 10 µM
[19] = second compound 1 µM, first compound 0.0316 µM
[20] = second compound 1 µM, first compound 0.1 µM
[21] = second compound 1 µM, first compound 0.316 µM
[22] = second compound 1 µM, first compound 1 µM
[23] = second compound 1 µM, first compound 3.16 µM
[24] = second compound 1 µM, first compound 10 µM
[25] = second compound 3.16 µM, first compound 0.0316 µM
[26] = second compound 3.16 µM, first compound 0.1 µM
[27] = second compound 3.16 µM, first compound 0.316 µM
[28] = second compound 3.16 µM, first compound 1 µM
[29] = second compound 3.16 µM, first compound 3.16 µM
[30] = second compound 3.16 µM, first compound 10 µM
[31] = second compound 10 µM, first compound 0.0316 µM
[32] = second compound 10 µM, first compound 0.1 µM
[33] = second compound 10 µM, first compound 0.316 µM
[34] = second compound 10 µM, first compound 1 µM
[35] = second compound 10 µM, first compound 3.16 µM
[36] = second compound 10 µM, first compound 10 µM
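Note: spheroids exposed to compounds for 7 days.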
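Throughout, for viability, T/C: 100% = DMSO vehicle control viability.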

CC(C)n1c(=O)n(C)c2cnc3cc(F)c(-c4ccc(OCCCN5CCCCC5)nc4)cc3c21 + Cc1cnc(CNC(=O)c2c(=O)c3ccc(N4CCCN(C)CC4)nc3n3c2sc2ccccc23)cn1
IC50 (second compound 0.0316 µM): > 10 µM
IC50 (second compound 0.1 µM): > 10 µM
IC50 (second compound 0.316 µM): 10 µM
IC50 (second compound 1 µM): < 0.0316 µM
IC50 (second compound 3.16 µM): < 0.0316 µM
IC50 (second compound 10 µM): < 0.0316 µM
viability, T/C [1]: 55.4%
viability, T/C [2]: 61.4%
viability, T/C [3]: 73.1%
viability, T/C [4]: 53.7%
viability, T/C [5]: 70.2%
viability, T/C [6]: 66.4%
viability, T/C [7]: 66.8%
viability, T/C [8]: 47.8%
viability, T/C [9]: 64.3%
viability, T/C [10]: 60.6%
viability, T/C [11]: 56.3%
viability, T/C [12]: 54.6%
viability, T/C [13]: 66.7%
viability, T/C [14]: 68.9%
viability, T/C [15]: 52.3%
viability, T/C [16]: 48.5%
viability, T/C [17]: 49.8%
viability, T/C [18]: 61%
viability, T/C [19]: 44.2%
viability, T/C [20]: 45.9%
viability, T/C [21]: 44.2%
viability, T/C [22]: 46.7%
viability, T/C [23]: 44.1%
viability, T/C [24]: 43%
viability, T/C [25]: 35.6%
viability, T/C [26]: 25.4%
viability, T/C [27]: 54.8%
viability, T/C [28]: 44.1%
viability, T/C [29]: 60.2%
viability, T/C [30]: 51.5%
viability, T/C [31]: 37.1%
viability, T/C [32]: 43.6%
viability, T/C [33]: 46.7%
viability, T/C [34]: 52.5%
viability, T/C [35]: 59.7%
viability, T/C [36]: 68.8%

CC1COCCN1c1cc(-c2ccnn2C)c2ccnc(-c3ccn[nH]3)c2n1 (stereo not given) + Cc1cnc(CNC(=O)c2c(=O)c3ccc(N4CCCN(C)CC4)nc3n3c2sc2ccccc23)cn1
IC50 (second compound 0.0316 µM): 1.54 µM
IC50 (second compound 0.1 µM): 1.72 µM
IC50 (second compound 0.316 µM): 0.173 µM
IC50 (second compound 1 µM): 0.232 µM
IC50 (second compound 3.16 µM): < 0.0316 µM
IC50 (second compound 10 µM): < 0.0316 µM
viability, T/C [1]: 98%
viability, T/C [2]: 58.7%
viability, T/C [3]: 77.4%
viability, T/C [4]: 60.4%
viability, T/C [5]: 38.9%
viability, T/C [6]: 24.4%
viability, T/C [7]: 58.7%
viability, T/C [8]: 82.7%
viability, T/C [9]: 95.9%
viability, T/C [10]: 67.7%
viability, T/C [11]: 29.1%
viability, T/C [12]: 30.9%
viability, T/C [13]: 112%
viability, T/C [14]: 52.6%
viability, T/C [15]: 49.8%
viability, T/C [16]: 44.2%
viability, T/C [17]: 28.3%
viability, T/C [18]: 36.6%
viability, T/C [19]: 57.7%
viability, T/C [20]: 62.4%
viability, T/C [21]: 43.1%
viability, T/C [22]: 38.1%
viability, T/C [23]: 28.2%
viability, T/C [24]: 26.2%
viability, T/C [25]: 44.2%
viability, T/C [26]: 33%
viability, T/C [27]: 37.4%
viability, T/C [28]: 37.9%
viability, T/C [29]: 42.9%
viability, T/C [30]: 29.8%
viability, T/C [31]: 45.6%
viability, T/C [32]: 41.2%
viability, T/C [33]: 26.7%
viability, T/C [34]: 29.1%
viability, T/C [35]: 28.8%
viability, T/C [36]: 32.5%

CC1COCCN1c1cc(C2(O)CC3CCC(C2)O3)c2cnn(-c3ccn[nH]3)c2n1 (stereo not given) + Cc1cnc(CNC(=O)c2c(=O)c3ccc(N4CCCN(C)CC4)nc3n3c2sc2ccccc23)cn1
IC50 (second compound 0.0316 µM): 6.31 µM
IC50 (second compound 0.1 µM): 3.16 µM
IC50 (second compound 0.316 µM): 3.2 µM
IC50 (second compound 1 µM): 0.235 µM
IC50 (second compound 3.16 µM): < 0.0316 µM
IC50 (second compound 10 µM): < 0.0316 µM
viability, T/C [1]: 64.5%
viability, T/C [2]: 77.8%
viability, T/C [3]: 92.2%
viability, T/C [4]: 77.6%
viability, T/C [5]: 82%
viability, T/C [6]: 30.6%
viability, T/C [7]: 106%
viability, T/C [8]: 85.8%
viability, T/C [9]: 96.3%
viability, T/C [10]: 44.8%
viability, T/C [11]: 61.3%
viability, T/C [12]: 57.7%
viability, T/C [13]: 65.6%
viability, T/C [14]: 60%
viability, T/C [15]: 51.7%
viability, T/C [16]: 62.7%
viability, T/C [17]: 49.2%
viability, T/C [18]: 29.9%
viability, T/C [19]: 59.3%
viability, T/C [20]: 60.8%
viability, T/C [21]: 41.6%
viability, T/C [22]: 43.4%
viability, T/C [23]: 50.5%
viability, T/C [24]: 39.6%
viability, T/C [25]: 45.7%
viability, T/C [26]: 38.9%
viability, T/C [27]: 44.9%
viability, T/C [28]: 42.4%
viability, T/C [29]: 26.8%
viability, T/C [30]: 23.8%
viability, T/C [31]: 37.7%
viability, T/C [32]: 44%
viability, T/C [33]: 37.7%
viability, T/C [34]: 39.2%
viability, T/C [35]: 34.1%
viability, T/C [36]: 23.7%

CC1COCCN1c1cc(C2(S(C)(=N)=O)CC2)nc(-c2ccnc3[nH]ccc23)n1 (stereo not given) + Cc1cnc(CNC(=O)c2c(=O)c3ccc(N4CCCN(C)CC4)nc3n3c2sc2ccccc23)cn1
IC50 (second compound 0.0316 µM): 10 µM
IC50 (second compound 0.1 µM): > 10 µM
IC50 (second compound 0.316 µM): > 10 µM
IC50 (second compound 1 µM): > 10 µM
IC50 (second compound 3.16 µM): < 0.0316 µM
IC50 (second compound 10 µM): < 0.0316 µM
viability, T/C [1]: 90.9%
viability, T/C [2]: 84.6%
viability, T/C [3]: 89%
viability, T/C [4]: 98.5%
viability, T/C [5]: 48%
viability, T/C [6]: 67.8%
viability, T/C [7]: 114%
viability, T/C [8]: 91.3%
viability, T/C [9]: 84.3%
viability, T/C [10]: 59.8%
viability, T/C [11]: 55.2%
viability, T/C [12]: 78.5%
viability, T/C [13]: 79.3%
viability, T/C [14]: 92.8%
viability, T/C [15]: 67.8%
viability, T/C [16]: 82.6%
viability, T/C [17]: 79.3%
viability, T/C [18]: 66.6%
viability, T/C [19]: 48.6%
viability, T/C [20]: 57.5%
viability, T/C [21]: 74.4%
viability, T/C [22]: 44.8%
viability, T/C [23]: 48.2%
viability, T/C [24]: 57.7%
viability, T/C [25]: 35.9%
viability, T/C [26]: 39%
viability, T/C [27]: 45.5%
viability, T/C [28]: 56.4%
viability, T/C [29]: 51.4%
viability, T/C [30]: 51.1%
viability, T/C [31]: 46%
viability, T/C [32]: 35.6%
viability, T/C [33]: 62.2%
viability, T/C [34]: 41%
viability, T/C [35]: 58.8%
viability, T/C [36]: 37.4%

COc1ccc([C@@H](O)c2cc(-c3ncnc4cc(N5CCOCC5)ccc34)c(F)cc2Cl)nn1 + Cc1cnc(CNC(=O)c2c(=O)c3ccc(N4CCCN(C)CC4)nc3n3c2sc2ccccc23)cn1
IC50 (second compound 0.0316 µM): 10 µM
IC50 (second compound 0.1 µM): 3.66 µM
IC50 (second compound 0.316 µM): 4.18 µM
IC50 (second compound 1 µM): 9.07 µM
IC50 (second compound 3.16 µM): 0.243 µM
IC50 (second compound 10 µM): < 0.0316 µM
viability, T/C [1]: 72.4%
viability, T/C [2]: 102%
viability, T/C [3]: 81.6%
viability, T/C [4]: 99.3%
viability, T/C [5]: 48.9%
viability, T/C [6]: 53%
viability, T/C [7]: 75.6%
viability, T/C [8]: 70.5%
viability, T/C [9]: 62.8%
viability, T/C [10]: 50.8%
viability, T/C [11]: 55.1%
viability, T/C [12]: 44.8%
viability, T/C [13]: 109%
viability, T/C [14]: 72.9%
viability, T/C [15]: 80%
viability, T/C [16]: 56.1%
viability, T/C [17]: 41.7%
viability, T/C [18]: 52%
viability, T/C [19]: 56.7%
viability, T/C [20]: 49.9%
viability, T/C [21]: 48.1%
viability, T/C [22]: 47.9%
viability, T/C [23]: 67.3%
viability, T/C [24]: 41%
viability, T/C [25]: 58.4%
viability, T/C [26]: 62.2%
viability, T/C [27]: 46.9%
viability, T/C [28]: 30%
viability, T/C [29]: 34.8%
viability, T/C [30]: 45.9%
viability, T/C [31]: 36.6%
viability, T/C [32]: 33.5%
viability, T/C [33]: 49.3%
viability, T/C [34]: 35.2%
viability, T/C [35]: 47.7%
viability, T/C [36]: 37.7%
